Laboratory results published in patent US20160194299A1 (priority 2013, published 2016).
In brackets after ≈: the same amount, converted by molar mass. Read-outs that look alike come from different tables or passages of the source.

What was measured:
[1] = system: Mtb; experiment: microbe, parasite or virus in culture; assay type: cell-based, Mycobacterium tuberculosis; settings: Mycobacterium tuberculosis, read-out: MIC (II)
[2] = system: Mtb; experiment: microbe, parasite or virus in culture; assay type: cell-based, Mycobacterium tuberculosis; settings: Mycobacterium tuberculosis, read-out: MIC (I)
[3] = in vitro; settings: African green monkey
[4] = system: Mtb; experiment: microbe, parasite or virus in culture; assay type: cell-based, Mycobacterium tuberculosis; settings: Mycobacterium tuberculosis, read-out: MIC (III)

CCOC(=O)NC(=O)c1ccsc1NC(=O)c1ccccn1 [Compound 167]
MIC [1]: > 3 µg/mL

CCOC(=O)NC(=O)c1ccsc1NC(=O)c1nc(C)cs1 [Compound 161]
MIC [1]: > 3 µg/mL

CCOC(=O)NC(=O)c1ccsc1NC(=O)c1ccc(S(C)(=O)=O)c([N+](=O)[O-])c1 [Compound 148]
MIC [1]: > 3 µg/mL

CCOC(=O)c1c(NC(=O)c2ccnc(NC(C)=O)c2)sc2c1CCCC2 [Compound 186]
MIC [1]: > 3 µg/mL

CCOC(=O)NC(=O)c1ccsc1NC(=O)C1CCN(c2ccccn2)CC1 [Compound 155]
MIC [1]: > 3 µg/mL

CCOC(=O)NC(=O)c1ccsc1NC(=O)c1csc(-c2ccccn2)n1 [Compound 133]
MIC [2]: > 3 µg/mL | CC50 [3]: > 50 µg/mL | MIC [4]: > 25 µg/mL

O=C(NC(=O)c1ccsc1NC(=O)c1cn2ccccc2n1)OCCOCc1ccccc1 [Compound 374]
MIC [2]: < 1 µg/mL | CC50 [3]: 25 to 50 µg/mL (≈ 53.8 to 108 µM) | MIC [4]: > 25 µg/mL

CCOC(=O)NC(=O)c1ccsc1NC(=O)c1ccnc(NC(=O)C(C)(C)C)n1 [Compound 118]
MIC [2]: > 3 µg/mL | CC50 [3]: > 50 µg/mL | MIC [4]: 5 to 25 µg/mL (≈ 11.9 to 59.6 µM)

O=C(Nc1sccc1C(=O)NC(=O)N1CCOCC1)c1nc2cnccc2s1 [Compound 386]
MIC [2]: > 3 µg/mL | CC50 [3]: < 25 µg/mL | MIC [4]: > 25 µg/mL

CCOC(=O)NC(=O)c1cc(F)sc1NC(=O)c1nc2cccnc2s1 [Compound 318]
MIC [2]: < 1 µg/mL | CC50 [3]: 25 to 50 µg/mL (≈ 63.4 to 127 µM) | MIC [4]: > 25 µg/mL

CCOC(=O)NC(=O)c1ccsc1NC(=O)c1cc2cccnc2s1 [Compound 332]
MIC [2]: < 1 µg/mL | CC50 [3]: > 50 µg/mL | MIC [4]: > 25 µg/mL

CCOC(=O)NC(=O)c1ccsc1NC(=O)c1cc(NC(=O)C(C)(C)C)ncn1 [Compound 36]
MIC [2]: 1 to 3 µg/mL (≈ 2.38 to 7.15 µM) | CC50 [3]: > 50 µg/mL | MIC [4]: > 25 µg/mL

CCOC(=O)NC(=O)c1ccsc1NC(=O)c1nc2ccc(NC(=O)CN)cc2s1 [Compound 393]
MIC [2]: > 3 µg/mL | CC50 [3]: < 25 µg/mL | MIC [4]: > 25 µg/mL

CCOC(=O)NC(=O)c1ccsc1NC(=O)c1nc2c(N3CCOCC3)nccc2s1 [Compound 248]
MIC [2]: < 1 µg/mL | CC50 [3]: > 50 µg/mL | MIC [4]: > 25 µg/mL

CCOC(=O)NC(=O)c1ccsc1NC(=O)c1cc2ccccc2s1 [Compound 90]
MIC [2]: < 1 µg/mL | CC50 [3]: 25 to 50 µg/mL (≈ 66.8 to 134 µM) | MIC [4]: < 5 µg/mL

CCOC(=O)NC(=O)c1cc(CC(=O)O)sc1NC(=O)c1nc2cnccc2s1 [Compound 308]
MIC [2]: > 3 µg/mL | CC50 [3]: < 25 µg/mL | MIC [4]: > 25 µg/mL

CCOC(=O)NC(=O)c1ccsc1NC(=O)c1ccc2ncccc2c1 [Compound 89]
MIC [2]: 1 to 3 µg/mL (≈ 2.71 to 8.12 µM) | CC50 [3]: > 50 µg/mL | MIC [4]: 5 to 25 µg/mL (≈ 13.5 to 67.7 µM)

O=C(NC(=O)c1ccsc1NC(=O)c1nc2ccccc2s1)OCCF [Compound 37]
MIC [2]: < 1 µg/mL | CC50 [3]: > 50 µg/mL | MIC [4]: > 25 µg/mL

CC(C)COC(=O)NC(=O)c1ccsc1NC(=O)c1nc2cnccc2s1 [Compound 282]
MIC [2]: > 3 µg/mL | CC50 [3]: 25 to 50 µg/mL (≈ 61.8 to 124 µM) | MIC [4]: > 25 µg/mL

CCOC(=O)NC(=O)c1ccsc1NC(=O)/C=C/c1nc2ccccc2s1 [Compound 365]
MIC [2]: < 1 µg/mL | CC50 [3]: < 25 µg/mL | MIC [4]: > 25 µg/mL

O=C(NC(=O)c1ccsc1NC(=O)c1nc2cnccc2s1)OCCC(F)(F)F [Compound 320]
MIC [2]: < 1 µg/mL | CC50 [3]: > 50 µg/mL | MIC [4]: > 25 µg/mL

CCOC(=O)NC(=O)c1cc(F)sc1NC(=O)c1nc2ncccc2s1 [Compound 389]
MIC [2]: 1 to 3 µg/mL (≈ 2.54 to 7.61 µM) | CC50 [3]: < 25 µg/mL | MIC [4]: > 25 µg/mL

CC(C)OC(=O)NC(=O)c1ccsc1NC(=O)c1nc2ccccc2s1 [Compound 41]
MIC [2]: < 1 µg/mL | CC50 [3]: < 25 µg/mL | MIC [4]: > 25 µg/mL

CC(C)OC(=O)NC(=O)c1ccsc1NC(=O)c1c(F)c(F)c(F)c(F)c1F [Compound 296]
MIC [2]: > 3 µg/mL | CC50 [3]: < 25 µg/mL | MIC [4]: 5 to 25 µg/mL (≈ 11.8 to 59.2 µM)

CCOC(=O)NC(=O)c1ccsc1NC(=O)c1ccc(=O)[nH]n1 [Compound 91]
MIC [2]: 1 to 3 µg/mL (≈ 2.97 to 8.92 µM) | CC50 [3]: > 50 µg/mL | MIC [4]: < 5 µg/mL

CC(C)OC(=O)NC(=O)c1cc(F)sc1NC(=O)c1nc2cnccc2s1 [Compound 104]
MIC [2]: < 1 µg/mL | CC50 [3]: < 25 µg/mL | MIC [4]: < 5 µg/mL

CC(C)OC(=O)NC(=O)c1cc(F)sc1NC(=O)c1nc2cccnc2s1 [Compound 344]
MIC [2]: < 1 µg/mL | CC50 [3]: 25 to 50 µg/mL (≈ 61.2 to 122 µM) | MIC [4]: > 25 µg/mL

CCC(CC)OC(=O)NC(=O)c1ccsc1NC(=O)c1cnc2ccnn2c1 [Compound 327]
MIC [2]: 1 to 3 µg/mL (≈ 2.49 to 7.47 µM) | CC50 [3]: < 25 µg/mL | MIC [4]: > 25 µg/mL

CCOC(=O)NC(=O)c1ccsc1NC(=O)c1ccnnc1 [Compound 86]
MIC [2]: 1 to 3 µg/mL (≈ 3.12 to 9.37 µM) | CC50 [3]: > 50 µg/mL | MIC [4]: 5 to 25 µg/mL (≈ 15.6 to 78 µM)

O=C(NC(=O)c1ccsc1NC(=O)c1nc2ccccc2s1)OC1COC1 [Compound 35]
MIC [2]: < 1 µg/mL | CC50 [3]: < 25 µg/mL | MIC [4]: > 25 µg/mL

O=C(NC(=O)c1ccsc1NC(=O)c1nc2cnccc2s1)OCCOCc1ccccc1 [Compound 369]
MIC [2]: < 1 µg/mL | CC50 [3]: 25 to 50 µg/mL (≈ 51.8 to 104 µM) | MIC [4]: > 25 µg/mL

CCOC(=O)NC(=O)c1ccsc1NC(=O)c1cccc2ncccc12 [Compound 139]
MIC [2]: > 3 µg/mL | CC50 [3]: > 50 µg/mL | MIC [4]: > 25 µg/mL

CCOC(=O)NC(=O)c1ccsc1NC(=O)c1cc2ccncc2s1 [Compound 329]
MIC [2]: < 1 µg/mL | CC50 [3]: < 25 µg/mL | MIC [4]: > 25 µg/mL

C#CCOC(=O)NC(=O)c1ccsc1NC(=O)c1nc2ccccc2s1 [Compound 303]
MIC [2]: < 1 µg/mL | CC50 [3]: < 25 µg/mL | MIC [4]: > 25 µg/mL

CN1CCCN(C(=O)c2ccsc2NC(=O)c2nc3ccccc3s2)CC1 [Compound 254]
MIC [2]: > 3 µg/mL | CC50 [3]: > 50 µg/mL | MIC [4]: > 25 µg/mL

CCOC(=O)NC(=O)c1ccsc1NC(=O)c1cc(OC)c2ccccc2n1 [Compound 114]
MIC [2]: > 3 µg/mL | CC50 [3]: > 50 µg/mL | MIC [4]: > 25 µg/mL

CCOC(=O)NC(=O)c1cc(CC(=O)OC)sc1NC(=O)c1nc2cnccc2s1 [Compound 276]
MIC [2]: > 3 µg/mL | CC50 [3]: 25 to 50 µg/mL (≈ 55.7 to 111 µM) | MIC [4]: > 25 µg/mL
